Data set [1] has as its system Bursaphelenchus xylophilus. Nature of the data set: Activity of tenvermectin A/B of different ratios on Bursaphelenchus xylophilus. It counts as in vivo. The settings on record: for LC50: in vivo.
Procedure: The activity of the mixture of tenvermectin A and tenvermectin B with different ratios was tested using Bursaphelenchus xylophilus as the test pest, in order to provide reference for modification and fermentation process of tenvermectin-producing bacteria.
The test system of data set [2] is Bursaphelenchus xylophilus. Kind of data set: whole plant or invertebrate. The procedure: Bursaphelenchus xylophilus is the pathogen of pine wilt disease, which results in the death of a great number of pines in the south of China. The laboratory activities of sixteen-membered macrolide compounds, including tenvermectin, avermectin, ivermectin, milbemycin, and emamectin benzoate etc, were tested using Bursaphelenchus xylophilus as the test pest, in order to compare the difference of activities among these reagents on Bursaphelenchus xylophilus.
Test reagents: 5 reagents, including 0.5% avermectin emulsifiable concentrate, 0.5% tenvermectin emulsifiable concentrate, 0.5% ivermectin emulsifiable concentrate, 2% milbemycin emulsifiable concentrate, and 2.5% emamectin benzoate microemulsion.
Experiment method: Dipping method was employed. For each reagent, 5 concentrations were tested, including 2, 5, 10, 20, and 50 mg/L. For each concentration, there were 3 repeats. The results were statistically analyzed at 24 h.

Another data set concerns citrus spider mite. Kind of data set: Prevention and control effect on citrus spider mite in field. More on the design: Amount of mites: unit not given here. It counts as in vivo, Panonychus citri McGregor. As for the experimental part: Citrus spider mite (i.e., Panonychus citri McGregor) is one of the primary insect pests for citrus. It has properties, such as small body, fast propagation and multiple generations, which will cause severe damage to citrus. Tenvermectin was prepared as 2% water dispersible granules for the test of prevention and control of citrus spider mite, so as to determine its effect in field.
Test reagents: 2% tenvermectin water dispersible granules (tenvermectin, ethanol and alkylphenol polyoxyethylene ether-formaldehyde condensate in a mass ratio of […]), and 2% avermectin emulsifiable concentrate
Experiment time: in early May, at the young fruit stage of citrus.
Experiment design: the reagents were diluted 2000-, 4000- and 8000-fold, to concentrations of 10 mg/L, 5 mg/L and 2.5 mg/L, respectively. For each concentration, there were 3 repeats. 10 citrus trees were comprised in one small area that was randomly arranged. Water was used as the control, in which 10 citrus trees were tested. 50 kg of reagent was sprayed for each concentration. The reagent was administrated on a sunny day with no rain in following 24 h.
Data analysis: in each small area, 5 trees were examined. For each tree, 2 branches, each located in the east, the south, the west, the north and the center of the tree, were investigated. For each branch, the amount of live mites was counted for total 5 leaves. The amount of live mites was counted before administration and on day 3, 5, 7 and 14 after administration respectively, to calculate the reduction rate of the mite population. The prevention and control effect in field was determined based on the result.

In another data set the test system is Tetranychus cinnabarinus. Kind of data set: Laboratory activity assay on Tetranychus cinnabarinus, leaf disc dipping method. It counts as in vivo. The settings on record: foliar. As for the experimental part:
(1) Laboratory activity assay of tenvermectin on Tetranychus cinnabarinus: the laboratory activity of tenvermectin was tested using Tetranychus cinnabarinus as the test pest, and using avermectin as the positive control. The activities were compared between tenvermectin and avermectin.
Test organism: Tetranychus cinnabarinus: it was inoculated to horsebean seedling and cultured under the conditions of artificial climate [(26±1)° C., RH (70±5)%, H/D14].
Test reagents: 96% (w/w) avermectin, 98% (w/w) tenvermectin (TEVA:TEVB=8:2): 1 g 96% avermectin and 98% tenvermectin were weighed and added to a beaker respectively, into which 93 g methanol and 6 g surfactant nonylphenol polyoxyethylene ether were added to give a preparation at a concentration of 10000 mg/L. The preparation was diluted with water into a series of concentrations: 0.005, 0.01, 0.025, and 0.05 mg/L for test.
Experiment method: leaf disc dipping method was employed: adult mites that were raised in laboratory with consistent physiological state were selected. The horsebean leaves with consistent growth condition were selected. 2 cm leaf-discs were prepared using a puncher. The leaf-disc was placed on absorbent cotton in the center of a plastic dish with the back of blade upwards. […] The number of adult mites was counted under a stereomicroscope 2 h later, and the number should not be less than 20 on each leaf disc in the dish. […]

[3] abbreviates: 2 mg/L, 24 h, dipping, reagents applied as emulsifiable concentrate/microemulsion.
Where [4] appears, read: 2.5 mg/L, 3 d after administration, field spray.
[5] abbreviates: 2.5 mg/L, 5 d after administration.
Where [6] appears, read: 2.5 mg/L, 7 d after administration.
[7] abbreviates: 2.5 mg/L, 14 d after administration.
Where [8] appears, read: 5.0 mg/L, 3 d after administration.
Where [9] appears, read: 5.0 mg/L, 5 d after administration.
The mark [10] stands for this setting: 5.0 mg/L, 7 d after administration.
Where [11] appears, read: 5.0 mg/L, 14 d after administration.
Where [12] appears, read: 10.0 mg/L, 3 d after administration.
The mark [13] stands for this setting: 10.0 mg/L, 5 d after administration.
Setting [14] is: 10.0 mg/L, 7 d after administration.
Where [15] appears, read: 10.0 mg/L, 14 d after administration.
[16] abbreviates: Bursaphelenchus xylophilus, 24 h, read-out: Mortality at different concentrations.

≈ marks a conversion by molar mass, not a printed value. Like-named read-outs stand apart in the source and are kept apart here.

In general, LC50 refers to the concentration that kills 50% of the test population. Regarding tenvermectin B, the LC50 in data set [1] came to 3.4816 µg/mL. Moreover, in data set [1] (in words), the “relative activity of tenvermectin A/B ratios on Bursaphelenchus xylophilus” value is listed as “higher than that of tenvermectin A”.
Regarding ivermectin, the “Mortality at different concentrations” value is on record as 18.52% in data set [2] (setting [3]); 42.55% in data set [2] (5 mg/L, 24 h, dipping); 57.47% in data set [2] (10 mg/L, 24 h, dipping); 58.33% in data set [2] (20 mg/L, 24 h, dipping); 78.94% in data set [2] (50 mg/L, 24 h, dipping). Besides, the LC50 in data set [2] (24 h, dipping) is 11.0629 µg/mL.
Compound milbemycin displayed an LC50 in data set [2] (in vivo) of 5.0123 µg/mL.
As to tenvermectin A, in data set [1], the LC50 came to 6.592 µg/mL.
For the compound `CC[C@H](C)[C@H]1O[C@]2(C=C[C@@H]1C)C[C@@H]1C[C@@H](C/C=C(\C)[C@@H](O[C@H]3C[C@H](OC)[C@@H](O[C@H]4C[C@H](OC)[C@@H](O)[C@H](C)O4)[C@H](C)O3)[C@@H](C)/C=C/C=C3\CO[C@@H]4[C@H](O)C(C)=C[C@@H](C(=O)O1)[C@]34O)O2` [avermectin], the Amount of mites with citrus spider mite (setting [4]) is 2.0; with citrus spider mite (setting [5]), 1.5; with citrus spider mite (setting [6]) it was 1.8; in the data set with citrus spider mite (setting [7]) it was 1.9; in the data set on citrus spider mite (setting [8]), 0.4; with citrus spider mite (setting [9]), 1.0. The Amount of mites in the data set with citrus spider mite (setting [10]) was 1.3; with citrus spider mite (setting [11]) it was 1.4; with citrus spider mite (setting [12]), 1.4; in the data set with citrus spider mite (setting [13]) it was 1.1; in the data set on citrus spider mite (setting [14]), 0.7; in the data set with citrus spider mite (setting [15]), 5.3. Also, the Effect with citrus spider mite (setting [4]) amounted to 80.5c; with citrus spider mite (setting [5]), 86.7b; with citrus spider mite (setting [6]), 87.3c; in the data set with citrus spider mite (setting [7]), 80.1b; in the data set with citrus spider mite (setting [8]), 91.2ab; in the data set on citrus spider mite (setting [9]) it was 87.3b. The Effect with citrus spider mite (setting [10]) was determined as 88.1c; in the data set with citrus spider mite (setting [11]), 80.4b; with citrus spider mite (setting [12]) it was 81.6c; with citrus spider mite (setting [13]), 90.6b; in the data set with citrus spider mite (setting [14]), 95.5c; with citrus spider mite (setting [15]), 83.0b. The LC50 came to 0.0083 µg/mL (≈ 9.51 nM) in the data set with Tetranychus cinnabarinus (24 h); 0.0083 µg/mL (≈ 9.51 nM) in the data set on Tetranychus cinnabarinus (read-out: LC50 on Tetranychus cinnabarinus); 5.35 µg/mL (≈ 6130 nM) in data set [2] (Bursaphelenchus xylophilus, 24 h). Moreover, the mortality at 2 µg/mL in data set [2] (setting [16]) is 43.2%. The mortality at 5 µg/mL in data set [2] (setting [16]) amounted to 46.1%. Moreover, the mortality at 10 µg/mL in data set [2] (setting [16]) came to 63.1%. Moreover, in data set [2] (setting [16]), the mortality at 20 µg/mL stood at 66.9%. For the same compound, the mortality at 50 µg/mL in data set [2] (setting [16]) was found to be 78%.
For emamectin benzoate, the “Mortality at different concentrations” value in data set [2] (setting [3]) is recorded as 48.27%; in data set [2] (5 mg/L, 24 h, dipping) it was 61.68%; in data set [2] (10 mg/L, 24 h, dipping), 67.44%; in data set [2] (20 mg/L, 24 h, dipping), 75%; in data set [2] (50 mg/L, 24 h, dipping) it was 86.67%. In data set [2] (24 h, dipping), this compound showed a 50% lethal concentration (LC50) of 2.8055 µg/mL.

The values above are taken from US10028507B2, “Sixteen-membered macrolide compound and applications thereof” (Zhejiang Hisun Pharmaceutical Co., Ltd., priority 2014, dated 2018).
